Source: patent publication US11858894B2, “Crystalline form of 1-(5-(2,4-Difluorophenyl)-1-((3-fluorophenyl)sulfonyl)-4-methoxy-1H-pyrrol-3-yl)-n-methylmethanamine salt” (Daewoong Pharmaceutical Co., Ltd., priority 2016, dated 2024)

Columns and labels:
Solubility test in water = format: physicochemical; details: thermodynamic from solid; deionized water, shaking and ultrasonic shaking
Description: For the solubility test in water, a sample of less than 10 mg was first precisely weighed and taken and placed into a vial, to which 50 μl of deionized water was added, shaking for 30 seconds and ultrasonic shaking for 1 minute were carried out, and these processes were repeated several times. The water solubility was calculated by measuring the amount of water used to dissolve all the samples.

[1] = Stability confirmation test (impurity formation during storage under severe conditions, liquid chromatography); format: physicochemical
Description: The stability test was carried out for the crystalline forms prepared in the Examples to evaluate the degree to which impurities were formed during storage under severe conditions (moisture-proof condition and high-humidity exposure condition). The results of the stability test under the moisture-proof condition were shown in Table 2 below, and the results of the stability test under the high-humidity exposure condition were shown in Table 3 below. For the stability test, vials containing 10 mg of each sample which was precisely weighed and taken were prepared in the planned quantity, and they were stored by dividing into the moisture-proof condition (60° C. and less than 10% relative humidity) and under the high-humidity exposure condition (60° C. and 95% relative humidity). However, under the high-humidity exposure condition, a stopper of the vial was not used to keep so that the sample is in sufficient contact with a moisture in the air. At a fixed point of time after the initiation of the test, two vials per point of time were taken (number of samples per test n=2). 10 ml of methanol was added to each vial to dissolve the sample, which was then centrifuged. The resulting supernatant was analyzed using a liquid chromatography. The peak area was determined by integration for all detected peaks, and the relative peak area for the main component and the total impurity was calculated and expressed as an average value.

[2] = high-humidity exposure condition (60° C., 95% relative humidity), After 1 week
[3] = high-humidity exposure condition (60° C., 95% relative humidity), After 2 weeks
[4] = high-humidity exposure condition (60° C., 95% relative humidity), After 4 weeks
[5] = high-humidity exposure condition (60° C., 95% relative humidity), Initial
[6] = moisture-proof condition (60° C., less than 10% relative humidity), After 2 weeks
[7] = moisture-proof condition (60° C., less than 10% relative humidity), After 4 weeks
[8] = moisture-proof condition (60° C., less than 10% relative humidity), Initial

| SMILES | solubility (Solubility test in water) | Peak area of main component [1, 2] | Peak area of total impurities [1, 2] | Peak area of main component [1, 3] | Peak area of total impurities [1, 3] | Peak area of main component [1, 4] | Peak area of total impurities [1, 4] | Peak area of main component [1, 5] | Peak area of total impurities [1, 5] | Peak area of main component [1, 6] | Peak area of total impurities [1, 6] | Peak area of main component [1, 7] | Peak area of total impurities [1, 7] | Peak area of main component [1, 8] | Peak area of total impurities [1, 8] |
| --- | --- | --- | --- | --- | --- | --- | --- | --- | --- | --- | --- | --- | --- | --- | --- |
| CNCc1cn(S(=O)(=O)c2cccc(F)c2)c(-c2ccc(F)cc2F)c1OC [Comparative Example 1, 1-(5-(2,4-difluorophenyl)-1-((3-fluorophenyl)sulfonyl)-4-methoxy-1H-pyrrol-3-yl)-N-methylmethanamine free base] | < 160 µg/mL | – | – | – | – | – | – | – | – | – | – | – | – | – | – |
| CNCc1cn(S(=O)(=O)c2cccc(F)c2)c(-c2ccc(F)cc2F)c1OC.Cl [Example 1-1, 1-(5-(2,4-difluorophenyl)-1-((3-fluorophenyl)sulfonyl)-4-methoxy-1H-pyrrol-3-yl)-N-methylmethanamine hydrochloride] | – | 99.81% | 0.19% | 99.80% | 0.20% | 99.80% | 0.20% | 99.82% | 0.18% | 99.80% | 0.19% | 99.80% | 0.20% | 99.82% | 0.18% |

Next, values leading:

| solubility (Solubility test in water) | Peak area of main component [1, 2] | Peak area of total impurities [1, 2] | Peak area of main component [1, 3] | Peak area of total impurities [1, 3] | Peak area of main component [1, 4] | Peak area of total impurities [1, 4] | Peak area of main component [1, 5] | Peak area of total impurities [1, 5] | Peak area of main component [1, 6] | Peak area of total impurities [1, 6] | Peak area of main component [1, 7] | Peak area of total impurities [1, 7] | Peak area of main component [1, 8] | Peak area of total impurities [1, 8] | SMILES |
| --- | --- | --- | --- | --- | --- | --- | --- | --- | --- | --- | --- | --- | --- | --- | --- |
| – | 99.56% | 0.44% | 99.53% | 0.47% | 99.47% | 0.54% | 99.55% | 0.45% | 99.61% | 0.39% | 99.55% | 0.45% | 99.55% | 0.45% | CNCc1cn(S(=O)(=O)c2cccc(F)c2)c(-c2ccc(F)cc2F)c1OC.O=C(O)CCC(=O)O [Example 3-1, 1-(5-(2,4-difluorophenyl)-1-((3-fluorophenyl)sulfonyl)-4-methoxy-1H-pyrrol-3-yl)-N-methylmethanamine succinate] |
| – | 99.48% | 0.52% | 99.43% | 0.57% | 99.23% | 0.77% | 99.52% | 0.48% | 99.54% | 0.46% | 99.48% | 0.52% | 99.52% | 0.48% | CNCc1cn(S(=O)(=O)c2cccc(F)c2)c(-c2ccc(F)cc2F)c1OC.O=C(O)C(O)C(O)C(=O)O [Example 4-1, 1-(5-(2,4-difluorophenyl)-1-((3-fluorophenyl)sulfonyl)-4-methoxy-1H-pyrrol-3-yl)-N-methylmethanamine tartrate] |
| 1730 to 2600 µg/mL | 99.40% | 0.60% | 99.32% | 0.68% | 99.30% | 0.70% | 99.38% | 0.62% | 99.36% | 0.64% | 99.37% | 0.63% | 99.38% | 0.62% | CNCc1cn(S(=O)(=O)c2cccc(F)c2)c(-c2ccc(F)cc2F)c1OC.O=C(O)/C=C/C(=O)O [Example 5-1, 1-(5-(2,4-difluorophenyl)-1-((3-fluorophenyl)sulfonyl)-4-methoxy-1H-pyrrol-3-yl)-N-methylmethanamine fumarate] |
